Measured values published in US9340590B2 (priority 2011, dated 2016).
pIC50: −log10 of the molar value. Read-outs that look alike come from different tables or passages of the source. Positions of bridges follow the written chain, without caps; N, C: chain ends. Residues, ends and D or L forms follow the SMILES beside them.

Columns and labels:
hNav1.3 = hNav1.3 (Homo sapiens, UniProt Q9NY46); experiment: cell-based; settings: IonWorks Quattro, read-out: IWQ Use Nav1.3
hNav1.5 = hNav1.5 (Homo sapiens, UniProt Q14524); experiment: cell-based; settings: IonWorks Quattro, read-out: IWQ Use Nav1.5
Chain of hNav1.5 (Q14524 whole entry, looked up): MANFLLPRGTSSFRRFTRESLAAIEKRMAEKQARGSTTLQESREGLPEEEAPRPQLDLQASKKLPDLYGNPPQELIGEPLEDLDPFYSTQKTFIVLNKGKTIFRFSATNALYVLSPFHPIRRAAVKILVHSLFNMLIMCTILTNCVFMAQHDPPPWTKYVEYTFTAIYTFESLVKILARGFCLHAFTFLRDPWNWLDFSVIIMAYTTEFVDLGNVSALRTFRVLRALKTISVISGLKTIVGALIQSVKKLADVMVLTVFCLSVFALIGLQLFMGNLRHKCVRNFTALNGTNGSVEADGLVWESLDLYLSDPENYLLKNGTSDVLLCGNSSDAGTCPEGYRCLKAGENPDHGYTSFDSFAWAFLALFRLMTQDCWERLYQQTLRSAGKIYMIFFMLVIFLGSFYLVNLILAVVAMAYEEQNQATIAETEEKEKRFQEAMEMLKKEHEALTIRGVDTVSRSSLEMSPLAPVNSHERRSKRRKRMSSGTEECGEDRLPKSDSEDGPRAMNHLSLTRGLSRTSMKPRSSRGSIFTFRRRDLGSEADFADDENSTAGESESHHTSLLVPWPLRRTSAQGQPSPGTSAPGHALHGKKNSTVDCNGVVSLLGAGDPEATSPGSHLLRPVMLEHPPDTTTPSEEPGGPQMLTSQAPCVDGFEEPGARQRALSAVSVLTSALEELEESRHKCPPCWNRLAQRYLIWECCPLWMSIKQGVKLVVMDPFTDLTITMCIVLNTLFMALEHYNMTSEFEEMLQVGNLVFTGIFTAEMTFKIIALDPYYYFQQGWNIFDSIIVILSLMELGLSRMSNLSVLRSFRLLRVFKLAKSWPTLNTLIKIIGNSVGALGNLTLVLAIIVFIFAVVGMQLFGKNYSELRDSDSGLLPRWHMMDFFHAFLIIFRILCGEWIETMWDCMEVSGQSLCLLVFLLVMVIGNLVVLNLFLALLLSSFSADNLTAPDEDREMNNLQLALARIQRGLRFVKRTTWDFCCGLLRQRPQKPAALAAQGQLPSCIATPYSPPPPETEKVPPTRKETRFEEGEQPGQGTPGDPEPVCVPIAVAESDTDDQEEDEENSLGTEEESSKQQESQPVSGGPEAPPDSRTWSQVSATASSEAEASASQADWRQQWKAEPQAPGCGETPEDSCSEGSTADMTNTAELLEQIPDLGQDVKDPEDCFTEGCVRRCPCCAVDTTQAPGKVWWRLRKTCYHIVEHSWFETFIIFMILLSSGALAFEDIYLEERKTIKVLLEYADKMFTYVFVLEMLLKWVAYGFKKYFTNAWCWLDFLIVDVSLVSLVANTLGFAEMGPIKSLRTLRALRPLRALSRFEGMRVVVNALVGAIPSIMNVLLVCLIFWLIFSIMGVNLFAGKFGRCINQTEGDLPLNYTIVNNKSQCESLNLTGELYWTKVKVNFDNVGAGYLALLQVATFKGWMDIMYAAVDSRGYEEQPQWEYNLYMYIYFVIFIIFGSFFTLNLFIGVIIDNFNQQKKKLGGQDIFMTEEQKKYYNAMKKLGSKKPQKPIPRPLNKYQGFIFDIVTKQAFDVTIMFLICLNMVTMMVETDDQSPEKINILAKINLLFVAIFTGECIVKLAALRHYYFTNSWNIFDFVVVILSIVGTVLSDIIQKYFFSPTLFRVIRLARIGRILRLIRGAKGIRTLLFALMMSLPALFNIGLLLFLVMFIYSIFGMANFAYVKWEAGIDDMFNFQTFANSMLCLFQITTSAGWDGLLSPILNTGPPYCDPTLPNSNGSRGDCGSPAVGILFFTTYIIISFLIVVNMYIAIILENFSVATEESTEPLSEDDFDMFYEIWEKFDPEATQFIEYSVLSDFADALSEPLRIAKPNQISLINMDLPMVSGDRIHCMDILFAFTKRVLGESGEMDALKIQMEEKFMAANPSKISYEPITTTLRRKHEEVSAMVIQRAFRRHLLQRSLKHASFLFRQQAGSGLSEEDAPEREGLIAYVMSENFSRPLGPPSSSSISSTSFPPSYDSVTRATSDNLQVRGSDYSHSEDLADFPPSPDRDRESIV

Chain of hNav1.3 (Q9NY46 whole entry, looked up): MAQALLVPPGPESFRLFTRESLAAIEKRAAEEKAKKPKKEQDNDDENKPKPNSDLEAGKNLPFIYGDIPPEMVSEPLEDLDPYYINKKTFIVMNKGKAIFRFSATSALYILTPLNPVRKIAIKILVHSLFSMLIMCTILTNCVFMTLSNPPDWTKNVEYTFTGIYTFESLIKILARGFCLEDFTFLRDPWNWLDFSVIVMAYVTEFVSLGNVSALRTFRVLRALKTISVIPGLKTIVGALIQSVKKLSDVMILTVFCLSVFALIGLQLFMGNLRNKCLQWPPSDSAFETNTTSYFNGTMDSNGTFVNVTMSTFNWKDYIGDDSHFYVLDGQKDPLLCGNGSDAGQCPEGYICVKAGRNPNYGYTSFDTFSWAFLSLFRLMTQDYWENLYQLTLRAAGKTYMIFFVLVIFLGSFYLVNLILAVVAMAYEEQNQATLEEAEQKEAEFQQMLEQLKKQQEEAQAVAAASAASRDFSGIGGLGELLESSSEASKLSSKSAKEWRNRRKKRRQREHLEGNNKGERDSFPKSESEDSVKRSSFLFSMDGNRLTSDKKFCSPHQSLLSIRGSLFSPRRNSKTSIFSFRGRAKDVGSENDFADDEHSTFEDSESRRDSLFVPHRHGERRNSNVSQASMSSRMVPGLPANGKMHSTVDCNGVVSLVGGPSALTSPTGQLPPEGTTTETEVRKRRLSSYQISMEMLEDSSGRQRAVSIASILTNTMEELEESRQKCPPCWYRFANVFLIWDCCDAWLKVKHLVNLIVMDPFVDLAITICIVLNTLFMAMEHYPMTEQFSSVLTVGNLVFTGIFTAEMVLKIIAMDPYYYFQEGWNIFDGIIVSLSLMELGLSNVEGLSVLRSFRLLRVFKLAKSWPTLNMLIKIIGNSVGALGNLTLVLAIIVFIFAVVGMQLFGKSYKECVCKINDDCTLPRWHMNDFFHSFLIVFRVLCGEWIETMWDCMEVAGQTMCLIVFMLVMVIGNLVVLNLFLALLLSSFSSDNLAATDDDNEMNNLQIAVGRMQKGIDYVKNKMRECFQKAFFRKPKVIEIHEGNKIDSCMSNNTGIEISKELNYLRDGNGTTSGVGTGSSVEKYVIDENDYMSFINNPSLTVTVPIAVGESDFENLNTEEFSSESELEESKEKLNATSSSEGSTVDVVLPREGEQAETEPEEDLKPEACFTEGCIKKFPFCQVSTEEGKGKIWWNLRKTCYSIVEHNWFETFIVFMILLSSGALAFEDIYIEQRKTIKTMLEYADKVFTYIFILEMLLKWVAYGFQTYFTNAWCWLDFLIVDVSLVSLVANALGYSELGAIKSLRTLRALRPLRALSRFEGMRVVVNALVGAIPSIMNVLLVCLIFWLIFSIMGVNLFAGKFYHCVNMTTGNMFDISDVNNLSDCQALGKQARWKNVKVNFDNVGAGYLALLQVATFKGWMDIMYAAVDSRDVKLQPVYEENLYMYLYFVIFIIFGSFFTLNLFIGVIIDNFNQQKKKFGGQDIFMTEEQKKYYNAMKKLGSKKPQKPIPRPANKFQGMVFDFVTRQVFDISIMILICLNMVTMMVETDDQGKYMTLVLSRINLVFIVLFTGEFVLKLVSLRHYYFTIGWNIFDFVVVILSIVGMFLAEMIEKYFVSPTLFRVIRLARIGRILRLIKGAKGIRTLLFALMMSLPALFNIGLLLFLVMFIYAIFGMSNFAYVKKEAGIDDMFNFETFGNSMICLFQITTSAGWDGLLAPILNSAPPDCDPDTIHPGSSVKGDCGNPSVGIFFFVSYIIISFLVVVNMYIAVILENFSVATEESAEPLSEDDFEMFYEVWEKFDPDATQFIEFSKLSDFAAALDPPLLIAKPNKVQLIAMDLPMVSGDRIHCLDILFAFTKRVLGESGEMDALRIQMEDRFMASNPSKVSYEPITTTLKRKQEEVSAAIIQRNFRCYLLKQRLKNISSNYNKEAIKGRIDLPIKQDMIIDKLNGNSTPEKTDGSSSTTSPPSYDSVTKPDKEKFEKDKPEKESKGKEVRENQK

Row | SMILES | pIC50 (hNav1.3; Use) | pIC50 (hNav1.5; Use) | pIC50 (hNav1.3; Table 26, use, […]) | pIC50 (hNav1.5; Table 26, use, […])
1 | CC[C@H](C)[C@@H]1NC(=O)[C@@H]2CSSC[C@@H]3NC(=O)[C@H](C(C)C)NC(=O)[C@H](CC(C)C)NC(=O)[C@H](CC(N)=O)NC(=O)[C@@H]4CCCN4C(=O)[C@H](CCCNC(=N)N)NC(=O)[C@H](CSSC[C@H](NC(=O)[C@@H](N)CC(=O)O)C(=O)N[C@@H](CC(C)C)C(=O)NCC(=O)N[C@@H](Cc4ccccc4)C(=O)N[C@@H](CCSC)C(=O)N[C@@H](CCCNC(=N)N)C(=O)N[C@@H](CCCCN)C(=O)N2)NC(=O)[C@H](CSSC[C@@H](C(=O)N[C@@H](CCCCN)C(=O)N[C@@H](Cc2ccc(O)cc2)C(=O)N[C@H](C(=O)N[C@@H](Cc2ccccc2)C(N)=O)C(C)C)NC(=O)[C@H](Cc2c[nH]c4ccccc24)NC(=O)[C@H](CCCCN)NC(=O)[C@H](Cc2cnc[nH]2)NC(=O)[C@H]([C@@H](C)O)NC(=O)[C@H](CCCNC(=N)N)NC(=O)[C@H](CO)NC3=O)NC(=O)[C@H](CCCCN)NC(=O)[C@H](CC(=O)O)NC(=O)[C@H](CC(N)=O)NC(=O)[C@H](CCCNC(=N)N)NC(=O)[C@@H]2CCCN2C1=O [compound 67] (H-DCLGFMRKCIPRNDKCCRPNLVCSRTHKWCKYVF-NH2; disulfide 2-17, 9-23, 16-30) | 6.85 | 5.30 | – | –
2 | CC[C@H](C)[C@@H]1NC(=O)[C@@H]2CSSC[C@@H]3NC(=O)[C@H](C(C)C)NC(=O)[C@H](CC(C)C)NC(=O)[C@H](CCCNC(=N)N)NC(=O)[C@@H]4CCCN4C(=O)[C@H](CCCNC(=N)N)NC(=O)[C@H](CSSC[C@H](NC(=O)[C@@H](N)CC(=O)O)C(=O)N[C@@H](CC(C)C)C(=O)NCC(=O)N[C@@H](Cc4ccccc4)C(=O)N[C@@H](CCSC)C(=O)N[C@@H](CCCNC(=N)N)C(=O)N[C@@H](CCCCN)C(=O)N2)NC(=O)[C@H](CSSC[C@@H](C(=O)N[C@@H](CCCCN)C(=O)N[C@@H](Cc2ccc(O)cc2)C(=O)N[C@H](C(=O)N[C@@H](Cc2ccccc2)C(N)=O)C(C)C)NC(=O)[C@H](Cc2c[nH]c4ccccc24)NC(=O)[C@H](CCCCN)NC(=O)[C@H](Cc2cnc[nH]2)NC(=O)[C@H]([C@@H](C)O)NC(=O)[C@H](CCCNC(=N)N)NC(=O)[C@H](CO)NC3=O)NC(=O)[C@H](CCCCN)NC(=O)[C@H](CC(=O)O)NC(=O)[C@H](CC(N)=O)NC(=O)[C@H](CC(=O)O)NC(=O)[C@@H]2CCCN2C1=O [compound 69] (H-DCLGFMRKCIPDNDKCCRPRLVCSRTHKWCKYVF-NH2; disulfide 2-17, 9-23, 16-30) | 7.10 | 4.83 | – | –
3 | CC[C@H](C)[C@@H]1NC(=O)[C@@H]2CSSC[C@@H]3NC(=O)[C@H](C(C)C)NC(=O)[C@H](CC(C)C)NC(=O)[C@H](CC(N)=O)NC(=O)[C@@H]4CCCN4C(=O)[C@H](CCCNC(=N)N)NC(=O)[C@H](CSSC[C@H](NC(=O)[C@@H](N)CC(=O)O)C(=O)N[C@@H](CC(C)C)C(=O)NCC(=O)N[C@@H](Cc4ccccc4)C(=O)N[C@@H](CCSC)C(=O)N[C@@H](CCCNC(=N)N)C(=O)N[C@@H](CCCCN)C(=O)N2)NC(=O)[C@H](CSSC[C@@H](C(=O)N[C@@H](CCCCN)C(=O)N[C@@H](Cc2ccc(O)cc2)C(=O)N[C@@H](CCCNC(=N)N)C(=O)N[C@@H](Cc2ccccc2)C(N)=O)NC(=O)[C@H](Cc2c[nH]c4ccccc24)NC(=O)[C@H](CCCCN)NC(=O)[C@H](Cc2cnc[nH]2)NC(=O)[C@H]([C@@H](C)O)NC(=O)[C@H](CCCNC(=N)N)NC(=O)[C@H](CO)NC3=O)NC(=O)[C@H](CCCCN)NC(=O)[C@H](CC(=O)O)NC(=O)[C@H](CC(N)=O)NC(=O)[C@H](CC(=O)O)NC(=O)[C@@H]2CCCN2C1=O [compound 74] (H-DCLGFMRKCIPDNDKCCRPNLVCSRTHKWCKYRF-NH2; disulfide 2-17, 9-23, 16-30) | – | – | 7.30 | 5.02
